Source: US20070179175A1, “Tetrahydronaphthyridine Derivative” (priority 2005, published 2007)

How the values were obtained:
[1] = target: T1, human histamine H3 receptor (Homo sapiens, UniProt Q9Y5N1); experiment: H3 cell based functional assay (cAMP, β-lactamase reporter gene)
T1 construct: expressed in transfected cells; host or cells: HEK-293 cells expressing a CRE beta-lactamase reporter gene
Experimental: The compound was evaluated using a cell based functional assay measuring cAMP through β-lactamase reporter gene activity. A stable cell line was generated from HEK-293 cells expressing a CRE β-lactamase reporter gene and transfected with human histamine H3 receptor cDNA. Cells were seeded at a density of 500,000 cells/ml, and grown overnight in MEM (Invitrogen) supplemented with 1% dialysed FBS (Sigma), 2 mM glutamine (Sigma), 1 mM sodium pyruvate (Sigma), 0.1 mM non essential amino acids (Invitrogen) and 25 mM HEPES (Sigma) in poly D lysine coated 384 well plates (BD Biosciences). […] For IC50 determination, the test compound was prepared in PBS (Sigma) and DMSO (Sigma) at a dose response of 5×10^−10 to 5×10^−5 M with a final DMSO concentration in the assay of 0.5%. Cells were incubated for 15 minutes plus/minus compound and their ability to permit 10 μM forskolin-stimulated cAMP synthesis in the presence of 1 nM imetit was measured as described above.

hERG channel = target: T2, hERG channel (Homo sapiens, UniProt Q12809); experiment: hERG patch clamp assay; type: cell-based; details: HEK293 cells stably expressing hERG; whole-cell patch clamp, 26.5-28.5° C.
T2 construct: expressed in transfected cells
Experimental: To determine the potential of compounds to inhibit the hERG channel, the cloned counterpart of the […] delayed rectifier potassium current (IKr), HEK293 cells stably expressing the hERG channel were used in whole-cell patch clamp electrophysiology studies at ambient temperature (26.5-28.5° C.). The methodology for stable transfection of this channel in HEK293 cells can be found elsewhere (Zhou et al 1998, Biophysical Journal, 74, pp 230-241). The solutions used for experimentation were standard extracellular solution of the following composition (mM); NaCl, 137; KCl, 4; CaCl2, 1.8; MgCl2, 1; Glucose, 10; HEPES, 10; pH 7.4±0.05 with NaOH/HCl; and standard intracellular solution of the following composition (mM); KCl 130; MgCl2, 1; HEPES, 10; EGTA, 5; MgATP, 5; pH 7.2±0.05 with KOH. The voltage protocol applied was designed to activate the hERG channel and allow the measurement of drug block of the channel and is as follows. First the membrane potential was stepped from a holding potential of −80 mV to +30 mV for 1s. This was followed by a descending voltage ramp at a rate of 0.5 mV/ms back to holding potential of −80 mV and the peak outward current observed during the repolarizing ramp was measured. This protocol was evoked repeatedly every 4 seconds (0.25 Hz). […]

T1 sequence (Q9Y5N1 whole entry): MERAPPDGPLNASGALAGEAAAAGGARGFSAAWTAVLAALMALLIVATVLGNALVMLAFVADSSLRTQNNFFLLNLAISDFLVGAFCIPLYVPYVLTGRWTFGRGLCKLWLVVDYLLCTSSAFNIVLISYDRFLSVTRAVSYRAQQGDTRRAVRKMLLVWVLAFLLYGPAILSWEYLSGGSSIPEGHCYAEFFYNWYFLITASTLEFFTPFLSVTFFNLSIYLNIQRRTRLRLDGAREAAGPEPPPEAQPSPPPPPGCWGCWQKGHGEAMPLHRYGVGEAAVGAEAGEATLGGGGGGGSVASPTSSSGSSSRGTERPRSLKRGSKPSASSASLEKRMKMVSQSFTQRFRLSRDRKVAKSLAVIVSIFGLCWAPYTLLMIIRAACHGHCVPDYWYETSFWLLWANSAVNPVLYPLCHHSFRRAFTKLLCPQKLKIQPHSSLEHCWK
T2 sequence (Q12809 whole entry): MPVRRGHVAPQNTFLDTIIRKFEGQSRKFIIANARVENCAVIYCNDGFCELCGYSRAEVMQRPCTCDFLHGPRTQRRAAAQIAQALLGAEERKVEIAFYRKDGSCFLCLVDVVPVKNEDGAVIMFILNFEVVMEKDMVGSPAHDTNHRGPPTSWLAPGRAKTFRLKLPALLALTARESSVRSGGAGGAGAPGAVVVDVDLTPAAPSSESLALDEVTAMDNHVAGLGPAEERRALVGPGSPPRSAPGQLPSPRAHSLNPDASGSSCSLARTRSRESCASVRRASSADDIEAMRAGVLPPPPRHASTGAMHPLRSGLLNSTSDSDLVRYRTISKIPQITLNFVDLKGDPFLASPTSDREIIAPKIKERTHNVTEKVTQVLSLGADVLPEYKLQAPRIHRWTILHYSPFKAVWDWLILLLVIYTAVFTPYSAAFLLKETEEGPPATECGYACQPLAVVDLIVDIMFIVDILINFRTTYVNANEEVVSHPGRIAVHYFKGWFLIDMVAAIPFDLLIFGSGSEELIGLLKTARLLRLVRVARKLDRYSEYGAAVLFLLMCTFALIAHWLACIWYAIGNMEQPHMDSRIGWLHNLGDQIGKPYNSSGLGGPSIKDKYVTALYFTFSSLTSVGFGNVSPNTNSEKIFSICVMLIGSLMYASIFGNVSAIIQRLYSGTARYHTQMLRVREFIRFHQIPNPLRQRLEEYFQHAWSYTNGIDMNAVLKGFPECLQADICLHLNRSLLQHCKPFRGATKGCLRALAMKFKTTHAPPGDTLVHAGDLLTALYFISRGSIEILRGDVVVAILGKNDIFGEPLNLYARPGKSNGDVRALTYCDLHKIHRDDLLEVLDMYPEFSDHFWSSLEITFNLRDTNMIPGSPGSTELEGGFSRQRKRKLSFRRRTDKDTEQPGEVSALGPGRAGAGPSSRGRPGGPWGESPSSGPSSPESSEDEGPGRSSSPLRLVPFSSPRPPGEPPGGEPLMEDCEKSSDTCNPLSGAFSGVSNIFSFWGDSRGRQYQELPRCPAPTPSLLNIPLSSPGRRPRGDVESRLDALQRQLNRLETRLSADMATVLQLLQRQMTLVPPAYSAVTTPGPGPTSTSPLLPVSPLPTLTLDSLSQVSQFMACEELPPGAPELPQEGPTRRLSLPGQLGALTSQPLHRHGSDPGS

Row | Ki ([1]; HEK-293 CRE β-lactamase cells, antagonism of 1 nM imetit, 10 μM forskolin, Ki calculated from IC50 by the Cheng-Prussoff equation) [nM] | SMILES | IC50 (hERG channel) [nM] | EC50 [1] [nM]
1 | 2.6 | CC(C)N1CCC(Oc2ccc3c(n2)CCN(c2ccc(C(N)=O)cn2)C3)CC1 [Example 1, 6-[2-(1-Isopropyl-piperidin-4-yloxy)-7,8-dihydro-5H-[1,6]naphthyridin-6-yl]-nicotinamide] | 22200 | 
2 |  | N=C(N)SCCc1cnc[nH]1 [imetit, reference compound] |  | 0.35
